Laboratory results published in article PMC5735336, “Microwave-assisted synthesis and antitumor evaluation of a new series of thiazolylcoumarin derivatives” (EXCLI Journal, 2017).
pIC50: −log10 of the molar value.

Tests used:
[1] = test system: cervical (Hela) cancer cell line; assay: In vitro antitumor screening, MTT assay, Hela; format: cell-based; conditions: Homo sapiens, 50% inhibition of cell viability
Description: (§1) The new analogs were tested for in vitro antitumor efficacy adopting the reported procedure (Mosmann, 1983[46]; Denizot and Lang, 1986[13]; Gerlier and Thomasset, 1986[21]).
(§2) In vitro antitumor screening of compounds 5a-t was carried out on cervical (Hela) and kidney fibroblast (COS-7) cancer cell lines in accord to MTT assay (Mosmann, 1983[46]; Denizot and Lang, 1986[13]; Gerlier and Thomasset, 1986[21]) and utilizing doxorubicin as a standard drug. The concentrations of the compounds that cause 50% inhibition of cell viability (IC50, µM) were calculated. […]
In vitro antitumor screening
(§3) Compounds 5a-t were screened for in vitro antitumor activity against HepG2 (liver), HCT-116 (colon) and MCF-7 (breast) cancer cell lines adopting MTT assa y (Mosmann, 1983; Denizot and Lang, 1986; Gerlier and Thomasset, 1986) and usin g 5- fluorouracil as a reference antitumor agent. Cells were cultured in Roswell Park Memorial Institute (RPM I) 1640 medium wit h 10% fetal bovine serum, penicillin (100 units/mL) and streptomycin (100 µg/mL) at 37 ° C in an atmosphere of 5% CO 2 were added.
(§4) Cells were placed in 96-multiwell microtiter plates (10^4 cells/well), for 24 h rs at 37 °C and in an atmosphere of 5% CO2 before tr eatment with the compounds to allow attachment of the cells to the wall of the plate. The tested compounds were dissolved in DMSO and diluted with phosphate buffer saline (PBS) to obtain different concentrations. Tested compounds of dif-ferent concentrations were added to each well and cells were incubated with the compounds for 48 hrs at 37 °C and in an atmosphere of 5% CO2. All tests were performed in triplicates.
(§5) The treated cells were wash ed with PBS and 100 µL of 3 -(4,5-dimeth ylthiazol-2-yl )-2,5-diphe-n yltetrazolium bromide solution (MTT) (5 mg/m L MTT st ock in PBS diluted to 1 mg/ mL with 10% RPMI-1640 medium) was added. The 9 6 -multiwell plates were read b y microarra y read er Perkinelmer vector 3V multilabel counter model 1420 (Perkinelmer, Boston, MA) for optical densit y at 490 nm (Mosmann, 1983; Denizot and Lang, 1986; Gerlier and Thomasset, 1986).
(§6) The relative percenta ge cell viabilit y was calculate d from the following equation: […]
(§7) The relation between surviving fraction and drug concentration is plotted to get the survival curve for HepG2, HCT-116 and M CF-7 cancer cell lines . […]
(§8) Denizot F, Lang R. Rapid colorimetric assa y for cell growth and survival. Modifications to the tetrazolium dye procedure giving improved sensitivity an d reliability. J Immunol Methods. 1986;89:271-7.
(§9) Gerlier D, Thomasset T. Use of MTT colorimetric assa y to measure cell activation. J Immunol Methods. 1986; […]
(§10) Mosmann T. Rapid colorimetric assa y for cellular growth and survival: Application to proliferation and cytotox- […]
(§11) Oberling C, Gu erin M. The role of viruses in the production of cancer . Ad v Cancer Res. 1954;2:353-423.
(§12) Sheeja KR, Kuttan G, Kuttan R. C ytotox ic and antitumour activit y of Berberin. Amala Res Bull. 1997;17:73-6.

[2] = test system: kidney fibroblast (COS-7) cancer cell line; assay: In vitro antitumor screening, MTT assay, COS-7; format: cell-based; conditions: Chlorocebus aethiops, 50% inhibition of cell viability, COS-7 cell line
Description: as §1, §2
In vitro antitumor screening […]
as §3, with “HCT-116” for “Compounds 5a-t were screened for in vitro antitumor activity against HepG2 (liver), HCT-116”
as §4, §5, §6, §7, §8, §9, §10, §11, §12

| SMILES | pIC50 [1] | pIC50 [2] | melting point [°C] |
| --- | --- | --- | --- |
| O=c1oc2ccccc2cc1-c1csc(NN=Cc2ccc3ccccc3c2[N+](=O)[O-])n1 [5p, 3-(2-(2-((1-Nitronaphthalen-2-yl)methylidene)hydrazino)thiazol-4-yl)-2H-chromen-2-one] | < 4.30 | < 4.30 | 211 to 213 |
| Cc1ccc(O)c(C=NNc2nc(-c3cc4ccccc4oc3=O)cs2)c1 [5j, 3-(2-(2-(2-Hydroxy-5-methylbenzylidene)hydrazino)thiazol-4-yl)-2H-chromen-2-one] | < 4.30 | < 4.30 | 206 to 207 |
| O=c1ccc2cc(C=NNc3nc(-c4cc5ccccc5oc4=O)cs3)ccc2o1 [5q, 6-((2-(4-(2-Oxo-2H-chromen-3-yl)thiazol-2-yl)hydrazono)methyl)-2H-chromen-2-one] | < 4.30 | < 4.30 | 181 to 183 |
| COc1cccc2c1C(=O)c1c(O)c3c(c(O)c1C2=O)C[C@@](O)(C(=O)CO)C[C@@H]3O[C@H]1C[C@H](N)[C@H](O)[C@H](C)O1 [Doxorubicin, doxorubicin, reference compound] | 5.69 | 5.52 | – |
| O=c1oc2ccccc2cc1-c1csc(NN=Cc2ccc(O)c(Br)c2)n1 [5i, 3-(2-(2-(3-Bromo-4-hydroxybenzylidene)hydrazino)thiazol-4-yl)-2H-chromen-2-one] | < 4.30 | < 4.30 | 182 to 184 |
| O=c1oc2ccccc2cc1-c1csc(NN=Cc2ccc(C(F)(F)F)cc2)n1 [5d, 3-(2-(2-(4-(Trifluoromethyl)benzylidene)hydrazino)thiazol-4-yl)-2H-chromen-2-one] | < 4.30 | < 4.30 | 189 to 190 |
| Cc1cccc(C=NNc2nc(-c3cc4ccccc4oc3=O)cs2)c1 [5e, 3-(2-(2-(3-Methylbenzylidene)hydrazino)thiazol-4-yl)-2H-chromen-2-one] | < 4.30 | < 4.30 | 190 to 191 |
| O=c1oc2ccccc2cc1-c1csc(NN=Cc2ccccc2Br)n1 [5a, 3-(2-(2-(2-Bromobenzylidene)hydrazino)thiazol-4-yl)-2H-chromen-2-one] | < 4.30 | < 4.30 | 212 to 213 |
| O=c1oc2ccccc2cc1-c1csc(NN=Cc2c(F)cccc2Cl)n1 [5g, 3-(2-(2-(2-Chloro-6-fluorobenzylidene)hydrazino)thiazol-4-yl)-2H-chromen-2-one] | < 4.30 | < 4.30 | 195 to 196 |
| COc1ccc(C=NNc2nc(-c3cc4ccccc4oc3=O)cs2)c(OC)c1 [5l, 3-(2-(2-(2,4-Dimethoxybenzylidene)-hydrazino)thiazol-4-yl)-2H-chromen-2-one] | < 4.30 | < 4.30 | 219 to 220 |
| O=c1oc2ccccc2cc1-c1csc(NN=Cc2cc3ccc4cccc5ccc(c2)c3c45)n1 [5t, 3-(2-(2-(Pyren-2-ylmethylidene)hydrazino)thiazol-4-yl)-2H-chromen-2-one] | < 4.30 | < 4.30 | 237 to 239 |
| O=c1oc2ccccc2cc1-c1csc(NN=Cc2cc3ccccc3c3ccccc23)n1 [5s, 3-(2-(2-(Phenanthren-9-ylmethylidene)-hydrazino)thiazol-4-yl)-2H-chromen-2-one] | < 4.30 | < 4.30 | 245 to 247 |
| Cc1cc(C=NNc2nc(-c3cc4ccccc4oc3=O)cs2)ccc1O [5k, 3-(2-(2-(4-Hydroxy-3-methylbenzylidene)-hydrazino)thiazol-4-yl)-2H-chromen-2-one] | < 4.30 | < 4.30 | 193 to 194 |
| O=c1oc2ccccc2cc1-c1csc(NN=Cc2ccc3ccccc3c2)n1 [5o, 3-(2-(2-(Naphthalen-2-ylmethylidene)hydrazino)thiazol-4-yl)-2H-chromen-2-one] | < 4.30 | < 4.30 | 225 to 227 |
| O=c1oc2ccccc2cc1-c1csc(NN=Cc2ccc(-c3ccccc3)cc2)n1 [5n, 3-(2-(2-((1,1'-Biphenyl)-4-ylmethylidene)-hydrazino)thiazol-4-yl)-2H-chromen-2-one] | < 4.30 | < 4.30 | 198 to 200 |
| N#Cc1ccccc1C=NNc1nc(-c2cc3ccccc3oc2=O)cs1 [5b, 3-(2-(2-(2-Cyanobenzylidene)hydrazino)thiazol-4-yl)-2H-chromen-2-one] | < 4.30 | < 4.30 | 219 to 220 |
| N#Cc1cccc(C=NNc2nc(-c3cc4ccccc4oc3=O)cs2)c1 [5c, 3-(2-(2-(3-Cyanobenzylidene)hydrazino)thiazol-4-yl)-2H-chromen-2-one] | < 4.30 | < 4.30 | 224 to 225 |
